Test results as given in ChEMBL document CHEMBL2401729, “Histone deacetylase inhibitors equipped with estrogen receptor modulation activity” (J Med Chem, 2013).
Active and inactive are the calls of the source. No cut-off for these calls is given here.

What was measured:
DU-145 = assay: Cytotoxicity against ERalpha-deficient human DU145 cells expressing ERbeta assessed as growth inhibition after 72 hrs by MTT assay; format: functional, cell-based; conditions: DU-145, 72 h
MDA-MB-231 = assay: Cytotoxicity against ERalpha and ERbeta-deficient human MDA-MB-231 cells assessed as growth inhibition after 72 hrs by MTT assay; format: functional, cell-based; conditions: MDA-MB-231, 72 h
Histone deacetylase 1 = Histone deacetylase 1 (Homo sapiens, UniProt Q13547); assay: Inhibition of human recombinant HDAC1 after 30 mins by fluorescence assay
Histone deacetylase 8 = molecular target: T1, Histone deacetylase 8 (Homo sapiens, UniProt Q9BY41); assay: Inhibition of human recombinant HDAC8 after 30 mins by fluorescence assay
T1 sequence (Q9BY41 whole entry): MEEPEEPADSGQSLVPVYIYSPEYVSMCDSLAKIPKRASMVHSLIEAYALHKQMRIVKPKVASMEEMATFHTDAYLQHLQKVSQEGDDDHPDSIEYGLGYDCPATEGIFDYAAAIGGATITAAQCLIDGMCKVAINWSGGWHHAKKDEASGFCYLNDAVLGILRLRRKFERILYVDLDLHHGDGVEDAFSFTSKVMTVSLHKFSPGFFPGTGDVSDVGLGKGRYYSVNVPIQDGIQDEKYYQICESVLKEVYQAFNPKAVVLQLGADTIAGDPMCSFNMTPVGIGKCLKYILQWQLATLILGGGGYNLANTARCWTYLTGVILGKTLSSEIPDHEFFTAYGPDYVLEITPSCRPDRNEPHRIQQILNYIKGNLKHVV

[1] = molecular target: T2, Protein deacetylase HDAC6 (Homo sapiens, UniProt Q9UBN7); assay: Inhibition of human recombinant HDAC6 after 30 mins by fluorescence assay
T2 sequence (Q9UBN7 whole entry): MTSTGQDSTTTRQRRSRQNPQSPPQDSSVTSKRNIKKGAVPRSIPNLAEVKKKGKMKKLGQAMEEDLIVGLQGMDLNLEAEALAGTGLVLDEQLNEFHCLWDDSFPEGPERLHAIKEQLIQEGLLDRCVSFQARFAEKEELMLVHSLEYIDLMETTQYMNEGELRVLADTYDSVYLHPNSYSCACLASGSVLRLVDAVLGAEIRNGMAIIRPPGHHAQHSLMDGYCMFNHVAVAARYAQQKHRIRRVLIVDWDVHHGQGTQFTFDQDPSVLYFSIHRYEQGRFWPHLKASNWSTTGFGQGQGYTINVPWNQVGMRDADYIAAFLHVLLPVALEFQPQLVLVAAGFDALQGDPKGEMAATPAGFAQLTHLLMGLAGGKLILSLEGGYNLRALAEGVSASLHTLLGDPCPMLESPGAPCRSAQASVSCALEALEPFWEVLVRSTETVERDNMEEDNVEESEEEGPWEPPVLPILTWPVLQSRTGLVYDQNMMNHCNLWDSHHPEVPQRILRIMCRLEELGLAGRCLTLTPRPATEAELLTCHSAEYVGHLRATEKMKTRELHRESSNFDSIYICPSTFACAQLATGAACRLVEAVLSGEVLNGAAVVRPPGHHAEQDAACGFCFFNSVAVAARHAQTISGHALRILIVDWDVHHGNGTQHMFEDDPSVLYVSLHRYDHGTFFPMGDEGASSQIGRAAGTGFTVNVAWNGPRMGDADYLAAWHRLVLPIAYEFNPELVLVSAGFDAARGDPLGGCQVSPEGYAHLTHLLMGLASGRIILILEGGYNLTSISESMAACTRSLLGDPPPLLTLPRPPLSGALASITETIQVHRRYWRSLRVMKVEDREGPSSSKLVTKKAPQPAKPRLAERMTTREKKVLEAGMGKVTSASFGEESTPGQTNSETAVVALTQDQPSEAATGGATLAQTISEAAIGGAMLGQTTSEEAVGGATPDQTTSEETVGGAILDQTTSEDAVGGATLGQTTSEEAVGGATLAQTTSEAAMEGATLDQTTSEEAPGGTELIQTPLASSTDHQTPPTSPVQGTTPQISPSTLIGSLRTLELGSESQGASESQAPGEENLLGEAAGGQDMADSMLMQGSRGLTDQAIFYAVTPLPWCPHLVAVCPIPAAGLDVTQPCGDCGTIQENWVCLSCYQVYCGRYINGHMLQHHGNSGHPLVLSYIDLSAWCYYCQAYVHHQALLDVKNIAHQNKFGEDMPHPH

MCF7 [2] = assay: Cytotoxicity against human MCF7 cells expressing ERalpha and ERbeta assessed as growth inhibition after 72 hrs by MTT assay; format: functional, cell-based; conditions: MCF7, 72 h
[3] = molecular target: Estrogen receptor beta (Homo sapiens) (UniProt Q92731); assay: Agonist activity at Gal4 DBD-fused human ERbeta LBD expressed in HEK293T cells at 10 uM after 40 hrs by luciferase reporter gene assay; format: cell-based; conditions: HEK-293T
Vero = assay: Cytotoxicity against african green monkey Vero cells assessed as growth inhibition after 72 hrs by MTT assay; format: ADME, cell-based; conditions: Chlorocebus sabaeus
[4] = Therapeutic index, ratio of IC50 for african green monkey Vero cells to IC50 for human MCF7 cells expressing ERalpha and ERbeta; conditions: Vero cells versus MCF7 cells expressing ERalpha and ERbeta
Estrogen receptor = molecular target: T3, Estrogen receptor (Homo sapiens, UniProt P03372); assay: Antagonist activity at Gal4 DBD-fused human ERalpha LBD expressed in HEK293T cells assessed as inhibition of estradiol-induced transcriptional activation after 20 hrs by luciferase reporter gene assay; format: cell-based, HEK-293T
T3 sequence (P03372 whole entry): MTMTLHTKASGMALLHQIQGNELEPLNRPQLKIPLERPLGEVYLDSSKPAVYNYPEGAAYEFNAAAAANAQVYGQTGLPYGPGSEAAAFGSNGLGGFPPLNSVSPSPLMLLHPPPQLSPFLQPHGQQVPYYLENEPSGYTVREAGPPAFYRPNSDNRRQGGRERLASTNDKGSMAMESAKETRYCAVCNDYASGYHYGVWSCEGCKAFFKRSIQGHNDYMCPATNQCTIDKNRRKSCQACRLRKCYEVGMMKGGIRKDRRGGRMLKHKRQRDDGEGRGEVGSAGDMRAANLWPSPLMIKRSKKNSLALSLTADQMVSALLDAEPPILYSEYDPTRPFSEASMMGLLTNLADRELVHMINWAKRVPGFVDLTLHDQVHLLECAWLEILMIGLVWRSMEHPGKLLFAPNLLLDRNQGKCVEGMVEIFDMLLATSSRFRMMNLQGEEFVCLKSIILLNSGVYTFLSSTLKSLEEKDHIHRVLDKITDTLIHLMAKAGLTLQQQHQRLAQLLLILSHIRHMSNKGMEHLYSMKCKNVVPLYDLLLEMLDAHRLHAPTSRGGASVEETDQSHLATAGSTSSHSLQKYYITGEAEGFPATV

MCF7 [5] = assay: Ratio of tamoxifen IC50 to compound IC50 for human MCF7 cells expressing ERalpha and ERbeta; format: functional

Sequence of Estrogen receptor beta (Homo sapiens) (Q92731 whole entry, the tested form may be a part): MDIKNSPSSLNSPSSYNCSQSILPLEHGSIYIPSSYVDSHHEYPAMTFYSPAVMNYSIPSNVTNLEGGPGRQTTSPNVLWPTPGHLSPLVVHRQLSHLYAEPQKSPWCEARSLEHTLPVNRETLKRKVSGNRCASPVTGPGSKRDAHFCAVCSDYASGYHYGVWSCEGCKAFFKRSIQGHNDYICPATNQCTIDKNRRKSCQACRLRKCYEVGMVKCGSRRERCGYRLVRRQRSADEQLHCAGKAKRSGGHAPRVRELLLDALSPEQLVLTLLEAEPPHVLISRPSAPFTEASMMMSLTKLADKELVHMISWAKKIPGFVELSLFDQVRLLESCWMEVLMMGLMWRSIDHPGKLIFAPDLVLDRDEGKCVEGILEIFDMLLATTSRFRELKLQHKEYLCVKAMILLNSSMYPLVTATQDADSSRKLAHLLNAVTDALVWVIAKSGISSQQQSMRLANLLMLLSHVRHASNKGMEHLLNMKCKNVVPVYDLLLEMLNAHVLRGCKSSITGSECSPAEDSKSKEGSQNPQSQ
Sequence of Histone deacetylase 1 (Q13547 whole entry): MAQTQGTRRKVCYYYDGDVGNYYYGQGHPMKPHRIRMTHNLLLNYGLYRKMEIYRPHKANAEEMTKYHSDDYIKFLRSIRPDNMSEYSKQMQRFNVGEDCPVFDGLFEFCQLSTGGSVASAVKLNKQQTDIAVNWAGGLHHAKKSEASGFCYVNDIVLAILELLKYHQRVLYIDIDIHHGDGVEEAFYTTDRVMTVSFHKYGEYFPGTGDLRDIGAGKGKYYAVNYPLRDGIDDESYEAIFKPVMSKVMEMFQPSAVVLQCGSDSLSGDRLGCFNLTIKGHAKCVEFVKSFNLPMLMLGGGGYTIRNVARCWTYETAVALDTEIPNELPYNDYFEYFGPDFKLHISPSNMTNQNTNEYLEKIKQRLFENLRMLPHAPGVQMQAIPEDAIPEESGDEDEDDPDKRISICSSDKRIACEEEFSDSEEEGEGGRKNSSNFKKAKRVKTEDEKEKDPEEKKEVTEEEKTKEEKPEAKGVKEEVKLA

Row | SMILES | IC50 (DU-145) | IC50 (MDA-MB-231) | IC50 (Histone deacetylase 1) | IC50 (Histone deacetylase 8) | IC50 [1] | IC50 (MCF7 [2]) | Activity [3] | IC50 (Vero) | selectivity ratio [4] | IC50 (Estrogen receptor) | Ratio IC50 (MCF7 [5])
1 | CC(O)(CS(=O)(=O)c1ccc(F)cc1)C(=O)Nc1ccc(C#N)c(C(F)(F)F)c1 (configuration not stated) [BICALUTAMIDE] | 18 µM | – | – | – | – | – | – | – | – | – | –
2 | C#C[C@]1(O)CC[C@H]2[C@@H]3CCc4cc(O)ccc4[C@H]3CC[C@@]21C [ETHINYL ESTRADIOL] | – | 32.9 µM | – | – | – | – | – | – | – | – | –
3 | C[C@]12CC[C@@H]3c4ccc(O)cc4CC[C@H]3[C@@H]1CC[C@@]2(O)c1cn(CCCCCCC(=O)NO)nn1 | 27 µM | 14.1 µM | 0.028 µM | 0.45 µM | 0.013 µM | 37.3 µM | Active | – | – | – | –
4 | C[C@]12CC[C@@H]3c4ccc(O)cc4CC[C@H]3[C@@H]1CC[C@@]2(O)c1cn(CCCCC(=O)NO)nn1 | – | – | 0.4 µM | 5 µM | 0.14 µM | – | Active | – | – | – | –
5 | C[C@]12CC[C@@H]3c4ccc(O)cc4CC[C@H]3[C@@H]1CC[C@@]2(O)c1cn(CCCCCC(=O)NO)nn1 | 26.9 µM | 22.6 µM | 0.075 µM | 4 µM | 0.032 µM | – | Active | – | – | – | –
6 | CC/C(=C(\c1ccccc1)c1ccc(OCCN(C)C)cc1)c1ccccc1 [TAMOXIFEN] | – | 17 µM | – | – | – | 15.6 µM | – | 15.9 µM | – | – | –
7 | C[C@]12CC[C@@H]3c4ccc(O)cc4CC[C@H]3[C@@H]1CC[C@@]2(O)c1cn(CCCC(=O)NO)nn1 | – | 28.4 µM | 0.015 µM | 11 µM | 0.008 µM | 22 µM | Active | – | > 1.82 | – | –
8 | CC/C(=C(\c1ccccc1)c1ccc(OCCN(C)Cc2ccc(NC(=O)CCCCCCC(=O)NO)cc2)cc1)c1ccccc1 | 14.1 µM | 8.1 µM | 2.7 µM | – | 0.221 µM | 3.8 µM | – | 3.6 µM | 0.95 | 0.127 µM | 4
9 | CC/C(=C(\c1ccccc1)c1ccc(OCCN(C)Cc2ccc(-c3cn(CCCCCC(=O)NO)nn3)cc2)cc1)c1ccccc1 | 20.6 µM | 10 µM | 0.524 µM | – | 0.567 µM | 7.2 µM | – | 9.1 µM | 1.26 | 0.248 µM | 2
10 | C[C@]12CC[C@@H]3c4ccc(O)cc4CC[C@H]3[C@@H]1CC[C@@]2(O)c1cn(CCCCCCCC(=O)NO)nn1 | – | 33.9 µM | 9 µM | 20 µM | 1.3 µM | – | Active | – | – | – | –
